From US20240165139A1, “GALACTOPYRANOSYL-CYCLOHEXYL DERIVATIVES AS E-SELECTIN ANTAGONISTS” (GLYCOMIMETICS, INC., priority 2017, published 2024)

target: E-selectin (Homo sapiens, UniProt P16581); assay: E-Selectin Activity - competitive binding assay (sLe^a polyacrylamide conjugate vs immobilized E-selectin/Ig chimera); settings: concentration required to inhibit binding of sLe^a conjugate to immobilized E-selectin/Ig chimera by 50%
Procedure: The inhibition assay to screen for and characterize glycomimetic antagonists of E-selectin is a competitive binding assay, which allows the determination of IC50 values. E-selectin/Ig chimera was immobilized in 96 well microtiter plates by incubation at 37° C. for 2 hours. To reduce nonspecific binding, bovine serum albumin was added to each well and incubated at room temperature for 2 hours. The plate was washed and serial dilutions of the test compounds were added to the wells in the presence of conjugates of biotinylated, sLe^a polyacrylamide with streptavidin/horseradish peroxidase and incubated for 2 hours at room temperature.
To determine the amount of sLe^a bound to immobilized E-selectin after washing, the peroxidase substrate, 3,3′,5,5′ tetramethylbenzidine (TMB) was added. After 3 minutes, the enzyme reaction was stopped by the addition of H3PO4, and the absorbance of light at a wavelength of 450 nm was determined.

E-selectin, sequence (P16581 22-610 limits assumed): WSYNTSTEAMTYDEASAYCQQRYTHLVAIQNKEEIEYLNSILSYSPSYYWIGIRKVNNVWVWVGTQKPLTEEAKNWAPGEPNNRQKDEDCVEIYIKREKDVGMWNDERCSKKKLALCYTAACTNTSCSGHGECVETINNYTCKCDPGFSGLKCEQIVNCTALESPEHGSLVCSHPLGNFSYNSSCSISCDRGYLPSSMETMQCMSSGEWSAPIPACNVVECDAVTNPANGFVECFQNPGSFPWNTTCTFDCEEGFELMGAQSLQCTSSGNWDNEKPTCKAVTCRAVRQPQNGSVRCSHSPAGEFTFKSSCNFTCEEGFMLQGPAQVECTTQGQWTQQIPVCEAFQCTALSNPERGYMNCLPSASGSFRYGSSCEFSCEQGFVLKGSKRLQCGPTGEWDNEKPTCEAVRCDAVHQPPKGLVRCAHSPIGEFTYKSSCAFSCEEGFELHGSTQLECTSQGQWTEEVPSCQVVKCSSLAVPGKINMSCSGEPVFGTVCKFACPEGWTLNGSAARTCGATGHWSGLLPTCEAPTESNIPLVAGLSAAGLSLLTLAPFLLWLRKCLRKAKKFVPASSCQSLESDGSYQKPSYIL

SMILES	IC50 [nM]
CCC1CC(C(=O)NCCNC(=O)c2cn(CC(CO)(CO)CO)nn2)C[C@@H](O[C@@H]2O[C@@H](CO)[C@H](O)C(O[C@@H](CC3CCCCC3)C(=O)N3CCC3)C2NC(C)=O)[C@@H]1O[C@@H]1OC(C)[C@@H](O)[C@H](O)C1O (stereo partly drawn) [Compound 20]	240
CCC1CC(C(=O)NCCNC(=O)[C@@H](OS(=O)(=O)O)[C@@H](COS(=O)(=O)O)OS(=O)(=O)O)C[C@@H](O[C@@H]2O[C@@H](CO)[C@H](O)C(O[C@@H](CC3CCCCC3)C(=O)O)C2NC(C)=O)[C@@H]1O[C@@H]1OC(C)[C@@H](O)[C@H](O)C1O (stereo partly drawn) [Compound 24]	190
CCC1CC(C(=O)NCCNC(=O)c2cn(CCCO)nn2)C[C@@H](O[C@@H]2O[C@@H](CO)[C@H](O)C(O[C@@H](CC3CCCCC3)C(=O)N3CCC3)C2NC(C)=O)[C@@H]1O[C@@H]1OC(C)[C@@H](O)[C@H](O)C1O (stereo partly drawn) [Compound 21]	520
CCC1CC(C(=O)NCCNC(=O)CCCS(=O)(=O)O)C[C@@H](O[C@@H]2O[C@@H](CO)[C@H](O)C(O[C@@H](CC3CCCCC3)C(=O)O)C2NC(C)=O)[C@@H]1O[C@@H]1OC(C)[C@@H](O)[C@H](O)C1O (stereo partly drawn) [Compound 33]	2120
CCC1CC(C(=O)NCCNC(=O)CCC(=O)O)C[C@@H](O[C@@H]2O[C@@H](CO)[C@H](O)C(O[C@@H](CC3CCCCC3)C(=O)O)C2NC(C)=O)[C@@H]1O[C@@H]1OC(C)[C@@H](O)[C@H](O)C1O (stereo partly drawn) [Compound 35]	720
CCC1CC(C(=O)NCCNC(=O)c2cn(CCCOS(=O)(=O)O)nn2)C[C@@H](O[C@@H]2O[C@@H](CO)[C@H](O)C(O[C@@H](CC3CCCCC3)C(=O)N3CCC3)C2NC(C)=O)[C@@H]1O[C@@H]1OC(C)[C@@H](O)[C@H](O)C1O (stereo partly drawn) [Compound 19]	580
CCC1CC(C(=O)NCCNC(=O)CCOCCOCCNC(=O)c2cn(C(COS(=O)(=O)O)(COS(=O)(=O)O)COS(=O)(=O)O)nn2)C[C@@H](O[C@@H]2O[C@@H](CO)[C@H](O)C(O[C@@H](CC3CCCCC3)C(=O)O)C2NC(C)=O)[C@@H]1O[C@@H]1OC(C)[C@@H](O)[C@H](O)C1O (stereo partly drawn) [Compound 46]	192
CCC1CC(C(=O)NCCNC(=O)CCCC(=O)O)C[C@@H](O[C@@H]2O[C@@H](CO)[C@H](O)C(O[C@@H](CC3CCCCC3)C(=O)O)C2NC(C)=O)[C@@H]1O[C@@H]1OC(C)[C@@H](O)[C@H](O)C1O (stereo partly drawn) [Compound 36]	510

The next lines start with the values.

IC50 [nM]	SMILES
660	CCC1CC(C(=O)NCCNC(=O)[C@@H](OS(=O)(=O)O)[C@H](COS(=O)(=O)O)OS(=O)(=O)O)C[C@@H](O[C@@H]2O[C@@H](CO)[C@H](O)C(O[C@@H](CC3CCCCC3)C(=O)O)C2NC(C)=O)[C@@H]1O[C@@H]1OC(C)[C@@H](O)[C@H](O)C1O (stereo partly drawn) [Compound 25]
2360	CCC1CC(C(=O)NCCNC(=O)CC(CS(=O)(=O)O)S(=O)(=O)O)C[C@@H](O[C@@H]2O[C@@H](CO)[C@H](O)C(O[C@@H](CC3CCCCC3)C(=O)O)C2NC(C)=O)[C@@H]1O[C@@H]1OC(C)[C@@H](O)[C@H](O)C1O (stereo partly drawn) [Compound 31]
2780	CCC1CC(C(=O)NCCNC(=O)CC(C)S(=O)(=O)O)C[C@@H](O[C@@H]2O[C@@H](CO)[C@H](O)C(O[C@@H](CC3CCCCC3)C(=O)O)C2NC(C)=O)[C@@H]1O[C@@H]1OC(C)[C@@H](O)[C@H](O)C1O (stereo partly drawn) [Compound 30]
170	CCC1CC(C(=O)NCCNC(=O)c2cn(CC(CO)(COS(=O)(=O)O)COS(=O)(=O)O)nn2)C[C@@H](O[C@@H]2O[C@@H](CO)[C@H](O)C(O[C@@H](CC3CCCCC3)C(=O)N3CCC3)C2NC(C)=O)[C@@H]1O[C@@H]1OC(C)[C@@H](O)[C@H](O)C1O (stereo partly drawn) [Compound 18]
